Results: patent US20080221205A1, “FURAN DERIVATIVES FOR PREVENTING AND CURING OSTEOPOROSIS AND PHARMACEUTICAL COMPOSITIONS CONTAINING THE SAME” (priority 2002, published 2008)

Test system: osteoclast formation
Assay: Inhibition rate of furan derivatives versus osteoclast formation (TRAP staining)
Assay type: cell-based, mice
Conditions: TRAP-positive multinucleated cells, untreated control set as 100%
Method: First, bone marrow cells were isolated, as follow. After sacrificing 7-9 week female mice by cervical dislocation, femur and tibia were excised aseptically while removing attached soft tissues. After cutting both ends of long bones, 1 ml of an enzyme solution, containing 0.1% collagenase (Gibco), 0.05% trypsin and 0.5 mM EDTA (Gibco), was injected to the bone marrow cavity at one end using a syringe with a 26-guage needle, and bone marrow was then collected. After shaking the recovered bone marrow for 30 min, bone marrow cells were collected, and cultured in α-minimum essential medium (α-MEM) supplemented with 10% FBS for 24 hrs. Then, non-adherent cells were collected, which are osteoclast pregenitors, aliquotted onto culture plates at a density of 2×10^5 cells per well, and cultured for 8 days in α-MEM supplemented with 20 ng/ml of macrophage-colony stimulating factor (M-CSF, Peprotech, USA) and 30 ng/ml RANKL (Peprotech, USA). During the 8 days of culturing, the cells were treated with the Compound 1. Thereafter, osteoclast formation was investigated by fixing the cultured cells and then carrying out TRAP staining, as described in the following Experimental Example 2.2. In addition, resorption activity of osteoclasts was investigated by measuring the absorption area after removing osteoclasts in cultures in calcium phosphate-coated plates, as described in Experimental Example 2.3, below.
After cell culture, the adherent cells were washed with PBS, and TRAP staining was performed, as follows. After being fixed with citrate-acetate-formaldehyde for 5 min, the cells were incubated for 1 hr in acetate buffer (prewarmed at 37° C., pH 5.0) containing naphthol AS-BI phosphate, fast Garnet GBC and 7 mM tartrate buffer (pH 5.0). TRAP-positive multinucleated cells having 3 or more nuclei were considered as osteoclasts.
Osteoclast pregenitor cells were isolated, and their differentiation to mature osteoclasts was induced, according to the same method as in the Experimental Example 2-1, while treated with each of the furan derivatives of the present invention. According to the same method as in the Experimental Example 2-2, TRAP staining performed, and TRAP-positive multinucleated cells were counted. An inhibition rate of each furan derivative against osteoclast formation was expressed as percentage, wherein the number of stained cells in a control not treated the furan derivative was arbitrarily set as 100% (Tables 14 to 16).

## O=Cc1ccc(COC(=O)Nc2ccccc2Cl)o1 [Compound 55]
0.1 μM
  Inhibition rate against osteoclast formation, %: 0%
1 μM
  Inhibition rate against osteoclast formation, %: 20%
10 μM
  Inhibition rate against osteoclast formation, %: 20%

## O=Cc1ccc(COC(=O)Cc2ccsc2)o1 [Compound 36]
0.1 μM
  Inhibition rate against osteoclast formation, %: 0%
10 μM
  Inhibition rate against osteoclast formation, %: 30%

## COc1ccccc1OCc1ccc(C(=O)OC(C)C)o1 [Compound 94]
0.1 μM
  Inhibition rate against osteoclast formation, %: 0%
1 μM
  Inhibition rate against osteoclast formation, %: 0%
10 μM
  Inhibition rate against osteoclast formation, %: 5.9%

## Cc1cc(C)cc(OCc2ccc(C(=O)Nc3ccccc3F)o2)c1 [Compound 177]
0.1 μM
  Inhibition rate against osteoclast formation, %: 0%
1 μM
  Inhibition rate against osteoclast formation, %: 0%

## COC(=O)c1ccc(COc2ccc(I)cc2)o1 [Compound 79]
0.1 μM
  Inhibition rate against osteoclast formation, %: 0%
1 μM
  Inhibition rate against osteoclast formation, %: 0%

## CC(C)NC(=O)c1ccc(CNc2cc(Cl)ccc2Cl)o1 [Compound 130]
0.1 μM
  Inhibition rate against osteoclast formation, %: 0%
1 μM
  Inhibition rate against osteoclast formation, %: 0%

## O=Cc1ccc(COC(=O)Cc2cccc(F)c2)o1 [Compound 37]
0.1 μM
  Inhibition rate against osteoclast formation, %: 0%
1 μM
  Inhibition rate against osteoclast formation, %: 10%

## COC(=O)c1ccc(COc2ccccc2Cl)o1 [Compound 61]
0.1 μM
  Inhibition rate against osteoclast formation, %: 0%
1 μM
  Inhibition rate against osteoclast formation, %: 0%

## O=C(O)c1ccc(COc2cc(Cl)ccc2Cl)o1 [Compound 109]
0.1 μM
  Inhibition rate against osteoclast formation, %: 0%
1 μM
  Inhibition rate against osteoclast formation, %: 0%

## O=Cc1ccc(COC(=O)Cc2ccc(F)cc2F)o1 [Compound 39]
0.1 μM
  Inhibition rate against osteoclast formation, %: 0%
1 μM
  Inhibition rate against osteoclast formation, %: 10%

## COc1ccccc1NC(=O)c1ccc(COc2ccc(C(C)(C)C)cc2)o1 [Compound 189]
0.1 μM
  Inhibition rate against osteoclast formation, %: 0%
1 μM
  Inhibition rate against osteoclast formation, %: 0%

## O=Cc1ccc(COC(=O)Cc2ccc3ccccc3c2)o1 [Compound 38]
0.1 μM
  Inhibition rate against osteoclast formation, %: 0%
10 μM
  Inhibition rate against osteoclast formation, %: 20%

## Cc1ccc(OCc2ccc(C(=O)Nc3ccc(F)c(F)c3)o2)cc1C [Compound 186]
0.1 μM
  Inhibition rate against osteoclast formation, %: 0%
1 μM
  Inhibition rate against osteoclast formation, %: 0%

## CCCc1ccc(OCc2ccc(C(=O)Nc3ccc(OC)c(OC)c3)o2)cc1 [Compound 164]
0.1 μM
  Inhibition rate against osteoclast formation, %: 0%
1 μM
  Inhibition rate against osteoclast formation, %: 0%

## COc1ccccc1OCc1ccc(C(=O)Nc2ccccc2Cl)o1 [Compound 174]
0.1 μM
  Inhibition rate against osteoclast formation, %: 0%
1 μM
  Inhibition rate against osteoclast formation, %: 0%

## COc1cccc(F)c1CC(=O)OCc1ccc(C=O)o1 [Compound 41]
0.1 μM
  Inhibition rate against osteoclast formation, %: 0%

## COC(=O)c1ccc(COc2ccc(Cl)cc2)o1 [Compound 80]
0.1 μM
  Inhibition rate against osteoclast formation, %: 0%
1 μM
  Inhibition rate against osteoclast formation, %: 0%

## COc1ccc(C)cc1NC(=O)c1ccc(COc2cccc(Cl)c2)o1 [Compound 171]
0.1 μM
  Inhibition rate against osteoclast formation, %: 0%
1 μM
  Inhibition rate against osteoclast formation, %: 0%
10 μM
  Inhibition rate against osteoclast formation, %: 0.42%

## O=C(Nc1ccc(I)cc1)c1ccc(COc2ccccc2Br)o1 [Compound 190]
0.1 μM
  Inhibition rate against osteoclast formation, %: 0%
1 μM
  Inhibition rate against osteoclast formation, %: 0%

## COC(=O)c1ccc(COc2ccc3c(c2)CCC3)o1 [Compound 70]
0.1 μM
  Inhibition rate against osteoclast formation, %: 0%
1 μM
  Inhibition rate against osteoclast formation, %: 0%

## Cc1cccc(C)c1NC(=O)c1ccc(COc2ccc(Cl)cc2)o1 [Compound 179]
0.1 μM
  Inhibition rate against osteoclast formation, %: 0%
1 μM
  Inhibition rate against osteoclast formation, %: 0%

## CCCc1ccc(OCc2ccc(C(=O)O)o2)cc1 [Compound 100]
0.1 μM
  Inhibition rate against osteoclast formation, %: 0%
1 μM
  Inhibition rate against osteoclast formation, %: 0%
